Measured values published in patent publication US4031218A, “7-(2,3-Dihydroxypropyl-1,3-di-n-propylxanthine and a pharmaceutical composition containing same useful as a bronchial muscle relaxant” (Mallinckrodt, Inc., priority 1976, dated 1977).
Converted amounts (≈) assume the structure as drawn.

Assays:
[1] = tested on: guinea pig tracheal strip; assay: Isolated trachea preparation (in vitro tracheal strip), pilocarpine-contracted; type: cell-based; settings: relative to theophylline = 1.00, molar basis
Experimental: With the exception of theophylline, all compounds were administered as the free base dissolved or suspended in appropriate aqueous vehicles. […] The ethylenediamine portion of the molecule is pharmacologically inert, but renders solubility and convenience of use (Simons et al., S. Med. Journ. 68:802, 1975). For the purpose of comparison, aminophylline was considered to contain 80% free theophylline by weight (Piafsky and Ogilvie, New England J. Med. 292: 1218, 1975). Final comparisons were always based on the calculated dose of theophylline. Because of obvious differences in molecular weights, all compounds were compared on a molar basis rather than on absolute weight.
1. Isolated Trachea Preparation
The in vitro bronchodilator activity of each compound was estimated on the spirally cut guinea pig tracheal strip preparation as described by Constantine, (J. Pharm. Pharmacol. 17:384, 1965). Large Camm English Short Hair male guinea pigs (800-1200 gm.) were employed in order to obtain three spiral tracheal strips from one animal. Strips were suspended in 50 ml. tissue baths containing modified Krebs-Henseleit solution at 38° C. and aerated with 95% O2 /5% CO2. Pilocarpine HCl, 1 mg/liter, was added to the solution to maintain a sustained contraction and to promote rapid recovery of the muscle. A Grass FT 0.03 force displacement transducer was used to electronically record muscle response. Concentration-relaxation relationships were obtained for each compound by logarithmically increasing bath concentration until maximum (100%) relaxation was observed. Tissues were washed between doses and allowed 30 minutes to recover. Linear regression analysis of percent response vs. log of bath concentration allowed calculation of a slope and EC50 value (concentration producing 50% of maximum relaxation) for each compound. Each dose of each compound was tested a minimum of six times.

[2] = Oral LD50 / oral PD50 ratio in guinea pigs; settings: guinea pig, in vivo, median lethal dose / median protective dose, relative to theophylline, read-out: Oral LD50 / Oral PD50 (G. Pig), relative
Experimental: where C is the average control preconvulsive time and T is the test preconvulsive time after compound administration, both in seconds. Animals with control preconvulsive times greater than 2 minutes were not used and if test preconvulsive time was longer than 10 minutes, 100% protection was arbitrarily assumed. The dose of each compound causing 50% protection (PD50) was calculated by the method of Litchfield and Wilcoxon (J. Pharmacol. Exp. Ther. 96:99, 1949).
The PD50 of each experimental compound was determined after both intraperitoneal and oral administration. A minimum of 3 dose levels and 6 animals per dose were employed to obtain meaningful dose-response data. Protection was assessed 15-20 minutes after intraperitoneal injection and 35-40 minutes after oral gavage with a flexible plastic tube. Animals were fasted overnight prior to oral dosing. All compounds were administered in aqueous solution in concentrations commensurate to a proper volume dose. Guinea pigs were utilized between 1 and 3 times but no animal received the same compound twice in succession with a minimum of 3 days rest between doses.
2. Oral LD50 in Guinea Pigs
The acute median lethal dose of each compound after oral administration was also determined in guinea pigs. Camm English Short Hair albino guinea pigs with sexes equally represented and ranging in weight from 255 to 311 gm. were used. A minimum of six animals per dose level were employed. Oral dosing was accomplished with a flexible tube inserted into the stomach. All guinea pigs were fasted overnight. […] The other compounds were dissolved in distilled water. Following administration of the appropriate doses, acute responses and lethalities were observed and LD50 values were calculated by the method of Litchfield and Wilcoxon (J. Pharmacol. Exp. Ther. 96:99, 1949).

dog hind limb = assay: Dog hind limb perfusion preparation (vasodilator); type: in vivo; settings: intra-arterial; relative to theophylline, molar basis
Excerpt: 1. Dog Hind Limb Perfusion Preparation
A total of 12 adult mongrel dogs of either sex were used to assess the direct intra-arterial dilating capacity of the five experimental compounds. […] This was accomplished with a Harvard Variable Speed Peristaltic Pump after proximal and distal cannualtion of the femoral artery. Changes in arterial vascular resistance were reflected as changes in perfusion pressure as measured from a T-tube on the distal side of the pump. Mean systemic arterial pressure was also recorded from the contralateral femoral artery. Drug solutions, dissolved in saline, were injected into the arterial blood supply immediately prior to entering the cannulated distal artery. Logarithmically increasing doses were given at 10-minute intervals and responses were recorded.

[3] = Intravenous emetic study in dogs (ED50); type: in vivo, dog; settings: dog, in vivo, iv; read-out: ED50 (median emetic dose), I.V. Dogs
Experimental: (§1) Twelve adult mongrel dogs of either sex were employed to determine the median emetic dose (ED50) of all five experimental compounds after intravenous administration. […] Onset, frequency, and duration of emetic episodes were also recorded. The dogs were not fasted, were allowed at least 2 days rest between doses, and no animal received the same compound twice in succession. […] ED50 values were calculated according to the method of Litchfield and Wilcoxon (1949).

dogs [4] = assay: Intravenous emetic study in dogs (ED50); type: in vivo, dog; settings: for Emetic effect, I.V. Dogs: estimated at HBD; for I.V. Emetic (Dogs), relative molar activity: relative to theophylline, molar basis
Experimental: as §1

dogs [5] = assay: Oral minimum emetic dose in dogs; type: in vivo, dog; settings: for Emetic effect, P.O. Dogs: estimated at HBD; for Oral Emetic (Dogs), relative molar activity: relative to theophylline, molar basis
Experimental: 2. Oral Minimum Emetic Dose
The minimum dose of each compound which causes emesis after oral administration was estimated in a group of five adult mongrel dogs of either sex. Logarithmically increasing or decreasing (depending upon response) doses of each compound were administered orally via a flexible stomach tube. The compounds were dissolved in distilled water in concentrations to allow a constant volume dose of 5 ml/kg. […] Onset, frequency, and duration of emetic episodes as well as signs of CNS stimulation were also recorded.

human bronchodilator = assay: Estimated human bronchodilator dose equivalent to recommended theophylline dose; settings: based on recommended theophylline dose and relative bronchodilator activities
Excerpt: Experimental results are summarized in Table I wherein pharmacologic and toxicologic activities relative to that of theophylline are expressed on a molar basis.
^a - Dose: Based on the recommended dose for theophylline and the
relative activities in the bronchodilator experiments.

[6] = prior art statement; cited from earlier work
Solubility = settings: for Solubility in words: water solubility, qualitative
dogs [7] = assay: Acute intravenous diuretic evaluation in dogs; settings: for Diuretic Activity, I.V. Dogs: estimated at HBD; for I.V. Diuretic (Dogs), relative molar activity: relative to theophylline, molar basis
Experimental: Acute Intravenous Evaluation in Dogs
Compounds were tested in two dogs each. Animals were initially hydrated with 30 ml/kg of water, orally; then anesthetized with pentobarbital sodium, 30-35 mg/kg i.v. One femoral vein was cannulated and a constant intravenous infusion of warm saline (3 ml/min.) was begun and continued throughout the experiment. The contralateral femoral vein was also cannulated for intravenous drug administration. Urine was directly collected from bilateral ureter cannulae. After a 20-minute control collection period, the first dose of the appropriate compound was injected and urine was collected at 20-minute intervals for a period of one hour. This procedure was repeated for two additional doses of the same compound. Urine volume, pH, and sodium and potassium levels were determined for each 20-minute collection period and sums were obtained for the one-hour period after each dose. Test results, reported as successive changes in each parameter, were compared accordingly.

Bronchodilator activity = settings: compared with theophylline
[8] = Acute toxicity and side effects; settings: compared with theophylline

Row | Structure (SMILES) | Bronchodilator activity, In-Vitro (Tracheal Strip), relative molar activity [1] | selectivity ratio [2] | Vasodilator, HLPP (Dogs), relative molar activity (dog hind limb) | ED50 [3] | Emetic effect, I.V. Dogs (dogs [4]) | I.V. Emetic (Dogs), relative molar activity (dogs [4]) | MED (minimum emetic dose), P.O. Dogs (dogs [5]) | Emetic effect, P.O. Dogs (dogs [5]) | Oral Emetic (Dogs), relative molar activity (dogs [5]) | Estimated Human Bronchodilator Dose (HBD), per 70 kg (human bronchodilator) | Estimated Human Bronchodilator Dose (HBD), per kg (human bronchodilator) | Side effects / tolerance in words (prior art) [6] | solubility (Solubility; water) | Diuretic Activity, I.V. Dogs (dogs [7]) | I.V. Diuretic (Dogs), relative molar activity (dogs [7]) | Bronchodilator potency in words (Bronchodilator activity) | solubility (Solubility; chloroform, organic solvent or mixture) | Solubility in words (Solubility) | Acute toxicity, emetic, cardiovascular, CNS and diuretic effects in words [8]
1 | Cn1c(=O)c2c(ncn2CC(O)CO)n(C)c1=O (stereo not drawn) [Compound II, 7-(2,3-dihydroxypropyl) 1,3-dimethylxanthine] | 0.16 | 2 | 0.06 | 900 mg/kg | None | 0.09 | > 362 mg/kg | None | < 0.50 | 2353 mg/70 kg | 33.6 mg/kg | few of the usual theophylline-like side effects | 330 mg/mL (≈ 1300 mM) | Moderate | 0.26 | – | – | – | –
2 | CCCn1c(=O)c2c(ncn2CC(O)CO)n(CCC)c1=O (stereo not drawn) [Compound V, 7-(2,3-dihydroxypropyl)-1,3-di-n-propylxanthine] | 0.99 | 3.75 | 0.40 | 53 mg/kg | None | 1.91 | 442 mg/kg | None | 0.50 | 299 mg/70 kg | 4.3 mg/kg | – | 100 mg/mL (≈ 322 mM) | Mild | 0.59 | comparable to theophylline as a bronchodilator | ~310 mg/mL (≈ 999 mM) | considerably more water soluble than theophylline | less active in regard to acute toxicity as well as undesirable cardiovascular, CNS, diuretic and oral emetic effects
3 | CCCn1c(=O)c2c(ncn2CC(C)O)n(CCC)c1=O (stereo not drawn) [III, 7-(2-hydroxypropyl) 1,3-di-n-propylxanthine] | 1.86 | 5.43 | 0.76 | 0.7 mg/kg | Severe | 134.17 | 0.8 mg/kg | Severe | 251.00 | 99 mg/70 kg | 1.4 mg/kg | well tolerated | 10 mg/mL (≈ 34 mM) | Mild | 0.50 | more potent bronchodilators than theophylline | – | low solubilities | increased undesirable emetic, cardiovascular and central nervous system (CNS) effects
4 | CCCn1c(=O)c2c(ncn2CCCO)n(CCC)c1=O [IV, 7-(3-hydroxypropyl)-1,3-di-n-propylxanthine] | 2.05 | 3.57 | 1.06 | 7.5 mg/kg | Moderate | 12.88 | 33 mg/kg | None | 6.00 | 347 mg/70 kg | 5.0 mg/kg | well tolerated | 30 mg/mL (≈ 102 mM) | Mild | 0.45 | more potent bronchodilators than theophylline | – | low solubilities | increased undesirable emetic, cardiovascular and central nervous system (CNS) effects
